The subject of series [1] is PC3 cells. Nature of the series: MTT cytotoxicity assay, PC3. How it is done: (§1) Human cervical cancer HeLa, human osteosarcoma U2OS, human prostate PC3 cell lines were procured from the ATCC. A549 lung carcinoma cells were obtained from Prof. David E. Root, Whitehead Institute for Biomedical Research. HeLa, U2OS, and A549 Cells were grown at 37° C. in 5% CO2 in DMEM medium supplemented with 10% fetal bovine serum and 1% penicillin/streptomycin. PC3 cells were grown at 37° C. in 5% CO2 in RPMI supplemented with 10% fetal bovine serum and 1% penicillin/streptomycin. Cells were passed every 3 to 4 days and restarted from frozen stocks upon reaching pass number 20.
(§2) In order to investigate the efficacy of Pt-DNA-Au NPs, their ability to kill cancer cells of various origin was measured. […] Cells were seeded on a 96 well plate in 100 μL media and incubated for 24 hours. The cells were then treated with Pt-DNA-Au NP, 1, or cisplatin, separately at varying concentrations and incubated for 72 hours at 37° C. Medium was removed, cells were washed with PBS and then incubated with cell culture medium containing 20% 3-(4,5-dimethylthiazol-2-yl)-2,5-diphenyltetrazolium bromide (MTT). […] Cells were further incubated overnight and the absorbance was measured at 620 nm using a BioTek Synergy HT multi-detection microplate plate reader. […]

Series [2] deals with A549 cells. On the procedure:
as §1, §2

A short description of series [3]: Cyclic voltammetry, reduction potential of the Pt(IV) complex. As to conditions: Ag/AgCl reference, 25° C. Type of series: physicochemical. On the procedure: The conjugate was designed to release a cytotoxic dose of cisplatin upon intracellular reduction. An ideal Pt(IV) complex should be sufficiently stable to travel through the blood stream until it reaches a tumor cell without decomposition. Once inside the cell, however, it should have an appropriate reduction potential such that it will be reduced and release its cytotoxic payload. Electrochemical measurements were made at 25° C. on a EG&G PAR Model 263 Potentiostat/Galvanostat with electrochemical analysis software 270 and a three electrode set-up comprising a glassy carbon working electrode, platinum wire auxiliary electrode and a Ag/AgCl reference electrode. The electrochemical data were uncorrected for junction potentials. KCl was used as a supporting electrolyte.

Series [4] has as its system U2OS cells. Nature of the series: MTT cytotoxicity assay, U2OS. Type of series: cell-based, human. The conditions noted are these: 72 hour treatment. On the procedure:
as §1, §2

pIC50: −log10 of the molar value.

With `[NH2][Pt]([NH2])([OH])([Cl])([Cl])[O]C(=O)CCC(=O)O` [Compound 1, c,c,t-[Pt(NH3)2Cl2(OH)(O2CCH2CH2CO2H)]], the “cytotoxicity (in words)” value in series [1] and in series [2] was “did not show any significant killing” each time. Further, the reduction potential in series [3] (pH 6.0, phosphate buffer-0.1 M KCl) is reported as −0.42 V; in series [3] (pH 7.4, phosphate buffer-0.1 M KCl, extrapolated to 0.0 mV s-1 scan rate) it was −0.49 V.

As for `N.N.[Cl][Pt][Cl]` [cisplatin, cis-diamminedichloroplatinum(II), reference compound], the pIC50 in series [1] (PC3 cells, 72 hour treatment, MTT) was 5.34; in series [4] it was 5.29.

These data come from patent US20120244230A1, “POLYVALENT POLYNUCLEOTIDE NANOPARTICLE CONJUGATES AS DELIVERY VEHICLES FOR A CHEMOTHERAPEUTIC AGENT” (priority 2009, published 2012).
